Values quoted from earlier work in patent US6900317B2, “Salts of the CGRP antagonist BIBN4096 and inhalable powdered medicaments containing them” (Boehringer Ingelheim Pharma GmbH & Co. KG, priority 2002, dated 2005).

Conditions: conventional preparations

bioavailability by oral route: only limited bioavailability
SMILES: NCCCC[C@H](NC(=O)[C@@H](Cc1cc(Br)c(O)c(Br)c1)NC(=O)N1CCC(N2Cc3ccccc3NC2=O)CC1)C(=O)N1CCN(c2ccncc2)CC1 [BIBN4096, 1-[N^2-[3,5-dibromo-N-[[4-(3,4-dihydro-2(1H)-oxoquinazolin-3-yl)-1-piperidinyl]carbonyl]-D-tyrosyl]-L-lysyl]-4-(4-pyridinyl)-piperazine]
